# Assays:
# [1] = cell viability assay, fiber counting (mortality rate); conditions: male, C57BL6, mouse
# Method: (§1) Single fibers were isolated from the Flexor Digitorum Brevis (FDB) muscles dissected from male C57BL6 mice (N° of mice = 3). Isolated fibers were obtained by incubating the FDB muscles with Dulbecco's modified Eagle's medium (DMEM+) solution composed by IX antibiotics (1%), L-glutamine (1%), FBS (10%) (EuroClone, S.p.A. Milan, Italy) enriched with 0.3 mg/ml collagenase type XI-S (Sigma Chemical Co.).
# (§2) For "in vitro" cell viability tests, the F-DOPA powder was directly solubilized in the complete cell culture medium (DMEM+). Stock solutions of ND1, ND2 and ND3 formulations were prepared at the concentration of 10 mg/ml. Microliter amounts of the stock solutions were then added to DMEM as needed, to obtain the final concentrations.
# (§3) The fibers were plated, counted under a microscope, and incubated for 3h with increasing concentrations of F-DOPA, ND1, ND2 and ND3 formulations and an imaging analysis was then performed. At the end of the incubation time, the cytotoxicity expressed as mortality rate with respect to the control condition was evaluated by counting the fibers before and after the incubation period.
# (§4) The mortality rate of the fibers and cells was calculated by the following equation: [(Ntreated/NCTRL)×100]−100 [formula] where Ntreated is the number of the treated cells and NCTRL is the number of untreated cells.
# (§5) The following three parametric logistic function was used to fit the concentrationmortality data of different F-DOPA formulations: percentage change of the mortality rate(%) = Emax ((1+EC50/DOSE))^slope [formula] where Emax, is the maximal drug effect; EC50, is the concentration needed to cause the 50% percent change of the maximal effect; DOSE, is the applied concentration; slope, is the hill slope of the curve (SIGMAPlot 10.0, Systat Software, Inc.).
# [2] = test system: mouse skeletal muscle fibers; assay: as above; conditions: Mus musculus
# Method: as §1, §2, §3, §4, §5
# [3] = UV-Vis absorbance stability in sterile physiological solution; format: physicochemical
# Excerpt: This behavior was further supported by monitoring the change in UV-Vis absorbance of a pH 6.4 sterile physiological solution containing F-DOPA. […]
# [4] = in situ FT-IR monitoring of F-DOPA degradation in aqueous solution; format: physicochemical
# Method: Aimed at better understanding the nature of the F-DOPA degradation products, the progress of the oxidation of F-DOPA was investigated by in situ FT-IR experiments at pH 8.0 and 5.15 at 25 °C (Figure 3).
# Nevertheless, an overlapping of the carbonyl and carboxyl groups in the range 1670-1650 cm^-1 of the postulated o-quinone derivatives (Scheme 1) should occur in aqueous solution. However, similar o-quinone species show typical bands at 1660, 1480 and 1380 cm^-1, and are known to be very unstable turning black the solution upon standing. […] Thus, in situ IR experiments confirm the long-time stability of F-DOPA in acidic conditions (pH < 5.15) and the high propensity to undergo degradation under basic conditions. The pH-rate profile was carried out in order to obtain kinetic data.
# The degradation pathway and the progress of the F-DOPA oxidation in aqueous solutions were further investigated by in situ FT-IR experiments at pH 8.0 and 5.15 at 25 °C. The experiments were carried out using a Mettler-Toledo ReactIR 4000 and Ic15 instruments equipped with a diamond-tipped (DiComp®) probe (Spectra elaborated with ConcIR® software), monitoring the C=O stretching of the F-DOPA and following new absorptions likely related to oxidized products (Castagnolo, D. et al. 2015; Mansueto, R. et al 2014). In a Schlenk tube equipped with a stirring bar and the React-IR probe, a 0.02 M F-DOPA aqueous solution at pH 5.15 was introduced via syringe at room temperature. Reference spectra for the pure solvent and F-DOPA were collected separately before starting the experiments. The solution was stirred for 10 min, to verify the stability of the readout, and spectra collected every 30 sec. The solution was then stirred for 24 h and constantly monitored by IR spectroscopy.
# [5] = enantioselective HPLC (optical stability, racemization); format: physicochemical; conditions: 4 mg/mL, 24 h at both 25 and 45 °C, sterile perfusion solution at pH 6.0
# Method: The HPLC system used to check the chemical stability of F-DOPA, related to its possible oxidation and racemization, consisted of a Waters Associates (Milford, MA, USA) model 1515 equipped with an isocratic pump, a Waters 2487 UV-vis detector, and the Breeze Software to analyze the chromatographic data. The HPLC analysis were performed on a reverse-phase column (Agilent Zorbax SB-Aq C8; 150 x 4.6 mm - 5 µm) kept at room temperature using detection wavelengths of 200 and 280 nm. The mobile phase consisted of 6.9 g/L solution of sodium dihydrogen phosphate adjusted to pH 2.4 with a 4.8 g/L solution of phosphoric acid, and the flow rate was 1 mL/min. The standard injection volume was 20 µL. […] To evaluate optical stability of F-DOPA, chromatograms were recorded on a teicoplanin aglycone-based chiral stationary phase (250 × 4.6 mm, particle size 5 µm, pore size 8 nm) CHIROBIOTIC (ASTEC, Whippany, NJ, USA), by eluting with a mixture 80% acetonitrile and 20% water, at a flow rate of 1 mL/min and a temperature of 25 °C.
# [6] = amount of F-DOPA dissolved in the formulation compositions; format: physicochemical; conditions: in the ND1, ND2 and ND3 compositions
# Method: Optimum stability for F-DOPA in aqueous formulations is achieved by maintaining the pH at acidic values, by excluding oxygen and incorporating in the formula a chelating agent for metal ion initiators of free-radical oxidation reactions. […] In order to formulate F-DOPA at the optimum acidic pH range, the appropriate buffer was selected. Lactate buffer (1 mM, pH 5.0) was chosen to formulate the parenteral solution, firstly because lactic acid is currently used in intravenous solutions and is already present in commercial formulation and, secondly, because this solution has a pH value compatible with the direct infusion avoiding or minimizing the pain at the injection site. Finally, common methods for decelerating the initiation step require eliminating initiators and catalysts from the formulation. Metals ions can be sequestered by the use of chelators, such as EDTA, citric acid and tartaric acid. […] For comparison purposes the ND3 formulation, having the same commercially available formulation "master formula", was also prepared by solubilizing F-DOPA in an aqueous solution of 17.5 mM acetic acid (1.05 mg/mL, pH = 3.1). In order to mimic the commercial formulation, immediately before its use the pH of ND3 was adjusted to a higher pH value (measured pH = 7.2) by the addition of 100 µL per mL of a sterile solution of 1 M (84 mg/mL) sodium bicarbonate. […]
smiles,measurement,setting,value
"N[C@@H](Cc1cc(O)c(O)cc1F)C(=O)O [F-DOPA, (2S)-2-Amino-3-(6-fluoro-3,4-dihydroxyphenyl)propanoic acid]","mortality at 3 h, 0.02 mg/ml",[1],< 15%
same,"mortality at 3 h, 0.05 mg/ml",[1],> 50%
same,Emax,[2],100%
same,EC50,[2]; 3 h,185 µM
same,decrease in F-DOPA initial concentration,"[3]; pH 6.4, degassed sterile 0.9% NaCl, 1 to 4 mg/mL, 25 or 45 °C, 6 h, absorbance at 298 nm",less than 5%
same,colour of sample,"[3]; pH 6.4, sterile 0.9% NaCl, after 24 h incubation",pale pink color
same,loss of vC=O absorbance,"[4]; buffer at pH = 8.0, within 2 h, 25 °C",10%
same,additional peaks in the range 1800-1200 cm^-1 (FT-IR),"[4]; pH 5.15, after 16 h, 25 °C",no additional peaks
same,appearance of the transparent aqueous solution,[4]; stirring at pH = 8.0 for 24 h,turned to black
same,racemization,[5],no racemization occurs
same,F-DOPA dissolved per mL,[6],10 mg/mL

# Reference: patent publication EP3551232B1, “STABLE F-DOPA FORMULATIONS AND USES THEREOF” (priority 2016, dated 2018)
